Measurements from patent US6518243B1, “Desleucyl glycopeptide antibiotics and methods of making same” (Trustees of Princeton University, priority 1999, dated 2003).

System: E. faecalis (CL 4877)
Assay: Zone of inhibition screen, 96 well agar array format
Assay type: cell-based
Parameters: scale not given here
Details: zone of inhibition relative to 1 mg/ml p-chlorobiphenylvancomycin
Procedure: The antibacterial activity of each of the compounds against the bacterial strains E. faceium (ATCC 49624), S. epidermidis (ATCC 12228), S. aureus (ATCC 29213), E. faecalis (CL 4877) and E. faecalis (ATCC 292121) was tested. Each of the compounds was screened in a 96 will agar array format.

SMILES	zone score, E. faecalis CL 4877
CC1OC(OC2C(Oc3c4cc5cc3Oc3ccc(cc3Cl)C(O)C3NC(=O)C(NC(=O)C5NC(=O)C(CC(N)=O)NC(=O)C(NC(=O)C5CCOC5)C(O)c5ccc(c(Cl)c5)O4)c4ccc(O)c(c4)-c4c(O)cc(O)cc4C(C(=O)O)NC3=O)OC(CO)C(O)C2O)CC(C)(NCc2ccc(-c3ccc(Cl)cc3)cc2)C1O (centres unmarked) [Compound 317]	2
CCC(=O)C(=O)NC1C(=O)NC(CC(N)=O)C(=O)NC2C(=O)NC3C(=O)NC(C(=O)NC(C(=O)O)c4cc(O)cc(O)c4-c4cc3ccc4O)C(O)c3ccc(c(Cl)c3)Oc3cc2cc(c3OC2OC(CO)C(O)C(O)C2OC2CC(C)(NCc3ccc(-c4ccc(Cl)cc4)cc3)C(O)C(C)O2)Oc2ccc(cc2Cl)C1O (centres unmarked) [Compound 242]	2
C[C@H]1O[C@H](O[C@H]2[C@H](Oc3c4cc5cc3Oc3ccc(cc3Cl)[C@@H](O)[C@@H](NC(=O)/C=C/c3ccc(Cl)c(Cl)c3)C(=O)N[C@@H](CC(N)=O)C(=O)N[C@H]5C(=O)N[C@H]3C(=O)N[C@H](C(=O)N[C@@H](C(=O)O)c5cc(O)cc(O)c5-c5cc3ccc5O)[C@H](O)c3ccc(c(Cl)c3)O4)O[C@H](CO)[C@@H](O)[C@@H]2O)C[C@@](C)(NCc2ccc(-c3ccc(Cl)cc3)cc2)[C@H]1O [Compound 251]	2
CC1OC(OC2C(Oc3c4cc5cc3Oc3ccc(cc3Cl)C(O)C3NC(=O)C(NC(=O)C5NC(=O)C(CC(N)=O)NC(=O)C(NC(=O)c5cccnc5)C(O)c5ccc(c(Cl)c5)O4)c4ccc(O)c(c4)-c4c(O)cc(O)cc4C(C(=O)O)NC3=O)OC(CO)C(O)C2O)CC(C)(NCc2ccc(-c3ccc(Cl)cc3)cc2)C1O (centres unmarked) [Compound 307]	2
CC1OC(OC2C(Oc3c4cc5cc3Oc3ccc(cc3Cl)C(O)C3NC(=O)C(NC(=O)C5NC(=O)C(CC(N)=O)NC(=O)C(NC(=O)CC(F)(F)F)C(O)c5ccc(c(Cl)c5)O4)c4ccc(O)c(c4)-c4c(O)cc(O)cc4C(C(=O)O)NC3=O)OC(CO)C(O)C2O)CC(C)(NCc2ccc(-c3ccc(Cl)cc3)cc2)C1O (centres unmarked) [Compound 249]	2

Same assay, conditions: zone of inhibition relative to 1 mg/ml stock solution of p-chlorobiphenylvancomycin

SMILES	zone score, E. faecalis CL 4877
CC1OC(OC2C(Oc3c4cc5cc3Oc3ccc(cc3Cl)[C@@H](O)[C@@H](NC(=O)CNC(N)=O)C(=O)N[C@@H](CC(N)=O)C(=O)N[C@H]5C(=O)NC3C(=O)N[C@H](C(=O)N[C@@H](C(=O)O)c5cc(O)cc(O)c5-c5cc3ccc5O)[C@H](O)c3ccc(c(Cl)c3)O4)OC(CO)C(O)C2O)CC(C)(NCc2ccc(-c3ccc(Cl)cc3)cc2)C1O (some centres unmarked) [Compound 162]	2
CC(=O)NCSCC(N)C(=O)NC1C(=O)NC(CC(N)=O)C(=O)NC2C(=O)NC3C(=O)NC(C(=O)NC(C(=O)O)c4cc(O)cc(O)c4-c4cc3ccc4O)C(O)c3ccc(c(Cl)c3)Oc3cc2cc(c3OC2OC(CO)C(O)C(O)C2OC2CC(C)(NCc3ccc(-c4ccc(Cl)cc4)cc3)C(O)C(C)O2)Oc2ccc(cc2Cl)C1O (centres unmarked) [Compound 55]	2
CC1OC(OC2C(Oc3c4cc5cc3Oc3ccc(cc3Cl)C(O)C(NC(=O)C(O)C(O)C(O)CO)C(=O)NC(CC(N)=O)C(=O)NC5C(=O)NC3C(=O)NC(C(=O)NC(C(=O)O)c5cc(O)cc(O)c5-c5cc3ccc5O)C(O)c3ccc(c(Cl)c3)O4)OC(CO)C(O)C2O)CC(C)(NCc2ccc(-c3ccc(Cl)cc3)cc2)C1O (centres unmarked) [Compound 127]	2
CC1OC(OC2C(Oc3c4cc5cc3Oc3ccc(cc3Cl)C(O)C3NC(=O)C(NC(=O)C5NC(=O)C(CC(N)=O)NC(=O)C(NC(=O)C(CC(N)=O)NC(=O)OC(C)(C)C)C(O)c5ccc(c(Cl)c5)O4)c4ccc(O)c(c4)-c4c(O)cc(O)cc4C(C(=O)O)NC3=O)OC(CO)C(O)C2O)CC(C)(NCc2ccc(-c3ccc(Cl)cc3)cc2)C1O (centres unmarked) [Compound 133]	2
CC1OC(OC2C(Oc3c4cc5cc3Oc3ccc(cc3Cl)[C@@H](O)[C@@H](NC(=O)CS(C)(=O)=O)C(=O)N[C@@H](CC(N)=O)C(=O)N[C@H]5C(=O)NC3C(=O)N[C@H](C(=O)N[C@@H](C(=O)O)c5cc(O)cc(O)c5-c5cc3ccc5O)[C@H](O)c3ccc(c(Cl)c3)O4)OC(CO)C(O)C2O)CC(C)(NCc2ccc(-c3ccc(Cl)cc3)cc2)C1O (some centres unmarked) [Compound 171]	2
C=C(NC(C)=O)C(=O)NC1C(=O)NC(CC(N)=O)C(=O)NC2C(=O)NC3C(=O)NC(C(=O)NC(C(=O)O)c4cc(O)cc(O)c4-c4cc3ccc4O)C(O)c3ccc(c(Cl)c3)Oc3cc2cc(c3OC2OC(CO)C(O)C(O)C2OC2CC(C)(NCc3ccc(-c4ccc(Cl)cc4)cc3)C(O)C(C)O2)Oc2ccc(cc2Cl)C1O (centres unmarked) [Compound 102]	2
C[C@H]1O[C@H](O[C@H]2[C@H](Oc3c4cc5cc3Oc3ccc(cc3Cl)[C@@H](O)[C@@H](NC(=O)[C@H](N)CSC(c3ccccc3)(c3ccccc3)c3ccccc3)C(=O)N[C@@H](CC(N)=O)C(=O)N[C@H]5C(=O)N[C@H]3C(=O)N[C@H](C(=O)N[C@@H](C(=O)O)c5cc(O)cc(O)c5-c5cc3ccc5O)[C@H](O)c3ccc(c(Cl)c3)O4)O[C@H](CO)[C@@H](O)[C@@H]2O)C[C@@](C)(NCc2ccc(-c3ccc(Cl)cc3)cc2)[C@H]1O [Compound 14]	2
CC1OC(OC2C(Oc3c4cc5cc3Oc3ccc(cc3Cl)C(O)C3NC(=O)C(NC(=O)C5NC(=O)C(CC(N)=O)NC(=O)C(NC(=O)C(CCCNC(=N)N)NC(=O)CNC(=O)OC(C)(C)C)C(O)c5ccc(c(Cl)c5)O4)c4ccc(O)c(c4)-c4c(O)cc(O)cc4C(C(=O)O)NC3=O)OC(CO)C(O)C2O)CC(C)(NCc2ccc(-c3ccc(Cl)cc3)cc2)C1O (centres unmarked) [Compound 138]	2
C[C@H]1O[C@H](O[C@H]2[C@H](Oc3c4cc5cc3Oc3ccc(cc3Cl)[C@@H](O)[C@@H](NC(=O)[C@@H](N)CC(=O)NC(c3ccccc3)(c3ccccc3)c3ccccc3)C(=O)N[C@@H](CC(N)=O)C(=O)N[C@H]5C(=O)N[C@H]3C(=O)N[C@H](C(=O)N[C@@H](C(=O)O)c5cc(O)cc(O)c5-c5cc3ccc5O)[C@H](O)c3ccc(c(Cl)c3)O4)O[C@H](CO)[C@@H](O)[C@@H]2O)C[C@@](C)(NCc2ccc(-c3ccc(Cl)cc3)cc2)[C@H]1O [Compound 2]	2
CC(=O)CC(=O)NCC(=O)N[C@H]1C(=O)N[C@@H](CC(N)=O)C(=O)N[C@H]2C(=O)NC3C(=O)N[C@H](C(=O)N[C@@H](C(=O)O)c4cc(O)cc(O)c4-c4cc3ccc4O)[C@H](O)c3ccc(c(Cl)c3)Oc3cc2cc(c3OC2OC(CO)C(O)C(O)C2OC2CC(C)(NCc3ccc(-c4ccc(Cl)cc4)cc3)C(O)C(C)O2)Oc2ccc(cc2Cl)[C@H]1O (some centres unmarked) [Compound 172]	2
CC1OC(OC2C(Oc3c4cc5cc3Oc3ccc(cc3Cl)C(O)C3NC(=O)C(NC(=O)C5NC(=O)C(CC(N)=O)NC(=O)C(NC(=O)CC5OCC6CN7CC8C9=CC(=O)C(=O)C([N+](=O)[O-])=C9NC8C5C6CC7C)C(O)c5ccc(c(Cl)c5)O4)c4ccc(O)c(c4)-c4c(O)cc(O)cc4C(C(=O)O)NC3=O)OC(CO)C(O)C2O)CC(C)(NCc2ccc(-c3ccc(Cl)cc3)cc2)C1O (centres unmarked) [Compound 144]	2
CC1OC(OC2C(Oc3c4cc5cc3Oc3ccc(cc3Cl)[C@@H](O)[C@@H](NC(=O)[C@H]3CC(=O)NC(=O)N3)C(=O)N[C@@H](CC(N)=O)C(=O)N[C@H]5C(=O)NC3C(=O)N[C@H](C(=O)N[C@@H](C(=O)O)c5cc(O)cc(O)c5-c5cc3ccc5O)[C@H](O)c3ccc(c(Cl)c3)O4)OC(CO)C(O)C2O)CC(C)(NCc2ccc(-c3ccc(Cl)cc3)cc2)C1O (some centres unmarked) [Compound 168]	2
CC(OC(c1ccccc1)(c1ccccc1)c1ccccc1)[C@H](N)C(=O)N[C@H]1C(=O)N[C@@H](CC(N)=O)C(=O)N[C@H]2C(=O)N[C@H]3C(=O)N[C@H](C(=O)N[C@@H](C(=O)O)c4cc(O)cc(O)c4-c4cc3ccc4O)[C@H](O)c3ccc(c(Cl)c3)Oc3cc2cc(c3O[C@@H]2O[C@H](CO)[C@@H](O)[C@H](O)[C@H]2O[C@@H]2C[C@@](C)(NCc3ccc(-c4ccc(Cl)cc4)cc3)[C@@H](O)[C@@H](C)O2)Oc2ccc(cc2Cl)[C@H]1O (some centres unmarked) [Compound 11]	2
CC1OC(OC2C(Oc3c4cc5cc3Oc3ccc(cc3Cl)C(O)C3NC(=O)C(NC(=O)C5NC(=O)C(CC(N)=O)NC(=O)C(NC(=O)CNC(=O)CNC(=O)OC(C)(C)C)C(O)c5ccc(c(Cl)c5)O4)c4ccc(O)c(c4)-c4c(O)cc(O)cc4C(C(=O)O)NC3=O)OC(CO)C(O)C2O)CC(C)(NCc2ccc(-c3ccc(Cl)cc3)cc2)C1O (centres unmarked) [Compound 140]	2
CC(N)C(=O)NC1C(=O)NC(CC(N)=O)C(=O)NC2C(=O)NC3C(=O)NC(C(=O)NC(C(=O)O)c4cc(O)cc(O)c4-c4cc3ccc4O)C(O)c3ccc(c(Cl)c3)Oc3cc2cc(c3OC2OC(CO)C(O)C(O)C2OC2CC(C)(NCc3ccc(-c4ccc(Cl)cc4)cc3)C(O)C(C)O2)Oc2ccc(cc2Cl)C1O (centres unmarked) [Compound 51]	2
CC(=O)NCCCCC(NC(C)=O)C(=O)NC1C(=O)NC(CC(N)=O)C(=O)NC2C(=O)NC3C(=O)NC(C(=O)NC(C(=O)O)c4cc(O)cc(O)c4-c4cc3ccc4O)C(O)c3ccc(c(Cl)c3)Oc3cc2cc(c3OC2OC(CO)C(O)C(O)C2OC2CC(C)(NCc3ccc(-c4ccc(Cl)cc4)cc3)C(O)C(C)O2)Oc2ccc(cc2Cl)C1O (mixture of isomers) [Compound 114]	2
CC(=O)NCC(=O)N[C@H]1C(=O)N[C@@H](CC(N)=O)C(=O)N[C@H]2C(=O)NC3C(=O)N[C@H](C(=O)N[C@@H](C(=O)O)c4cc(O)cc(O)c4-c4cc3ccc4O)[C@H](O)c3ccc(c(Cl)c3)Oc3cc2cc(c3OC2OC(CO)C(O)C(O)C2OC2CC(C)(NCc3ccc(-c4ccc(Cl)cc4)cc3)C(O)C(C)O2)Oc2ccc(cc2Cl)[C@H]1O (some centres unmarked) [Compound 179]	2
CC(=O)NC(CC(N)=O)C(=O)NC1C(=O)NC(CC(N)=O)C(=O)NC2C(=O)NC3C(=O)NC(C(=O)NC(C(=O)O)c4cc(O)cc(O)c4-c4cc3ccc4O)C(O)c3ccc(c(Cl)c3)Oc3cc2cc(c3OC2OC(CO)C(O)C(O)C2OC2CC(C)(NCc3ccc(-c4ccc(Cl)cc4)cc3)C(O)C(C)O2)Oc2ccc(cc2Cl)C1O (centres unmarked) [Compound 113]	2
